Measured values as given in US9420799B2, “Method for controlling nematode pests” (Syngenta Participations AG, priority 2011, dated 2016).

System: soybean cyst nematode (SCN)
Assay: Yield response field trials: soybean seed treated with Pasteuria nishizawae, compared with seed not treated with Pasteuria
Type: in vivo, Heterodera glycines
Conditions: for Yield Response for Resistant Varieties / Yield Response for Susceptible Varieties: approx. 1×10^7 spores/seed, percent yield increase vs seeds not treated with Pasteuria, averaged; for Yield Response for Susceptible Varieties: SCN susceptible soybean varieties
Method: Yield Response Experiment
Multiple field trials were conducted across the United States Midwest region. Baseline nematode populations were determined by sampling from 4 untreated plots. Samples were taken (10 cores per plot) at a depth of 6-8 inches (approx. 15.2-20.3 cm). Samples were stored in a cooler until laboratory assays (eggs/100 cc) were performed.
To allow for sufficient viability to assess results properly, both SCN resistant and susceptible varieties were treated with an insecticide and fungicide seed treatment (CRUISERMAXX seed treatment for beans available from Syngenta Crop Protection, LLC including thiamethoxam (22.61%); mefenoxam (1.70%) and fludioxonil (1.12%)). In addition for some test groups Pasteuria nishizawae treatment was applied at a rate of approximately 1×10^7 spores/seed. Percent yield increase was determined by comparing seeds treated with Pasteuria to those not treated with Pasteuria.
The results of 119 separate trials were sorted according to initial SCN pressure at trial location. Yield data were averaged.

Pasteuria nishizawae
Yield Response for Resistant Varieties (SCN resistant soybean varieties, SCN pressure 0 eggs/100 cc): 0.3%
Yield Response for Resistant Varieties (SCN resistant soybean varieties, SCN pressure 1-500 eggs/100 cc): 0.7%
Yield Response for Resistant Varieties (SCN resistant soybean varieties, SCN pressure 501-1000 eggs/100 cc): 2.6%
Yield Response for Resistant Varieties (SCN resistant soybean varieties, SCN pressure >1000 eggs/100 cc): 5.2%
Yield of resistant varieties, result in words (SCN resistant soybean varieties, all pest pressures): showed increase yield over non-Pasteuria treated soybean seed regardless of pest pressure
Yield Response for Susceptible Varieties (SCN pressure 0 eggs/100 cc): 1.3%
Yield Response for Susceptible Varieties (SCN pressure 1-500 eggs/100 cc): 1.0%
Yield Response for Susceptible Varieties (SCN pressure 501-1000 eggs/100 cc): 0.8%
Yield Response for Susceptible Varieties (SCN pressure >1000 eggs/100 cc): 0.0%
Yield of varieties with no resistance or tolerance to SCN, result in words (soybean varieties having no resistance or tolerance to SCN, benefit mostly in absence of or with low pest pressure): generally benefitted from treatment with Pasteuria
